The values that follow come from patent publication US20240041870A1, “METHODS OF TREATING SYSTEMIC LUPUS ERYTHEMATOSUS” (AbbVie Inc., priority 2022, published 2024).

Series [1] is described as follows: Upadacitinib pharmacokinetics in Study M19-130 (model-estimated steady-state exposure). In kind it is in vivo, human. The settings on record: 30 mg QD; subjects with SLE; plasma. An excerpt: Upadacitinib plasma concentrations were summarized at each sampling time point using descriptive statistics. A mixed-effects modeling approach may have been used to estimate the population central value and the empirical Bayesian estimates of the individual values for upadacitinib oral clearance (CL/F) and volume of distribution (Vss/F). Additional parameters and pharmacokinetic (PK)/pharmacodynamic relationships may have been estimated if useful in the interpretation of the data.
The model-estimated median ([…]) steady-state (SS) Cavg in subjects with SLE was 28.4 (19.1-46.6) ng/mL for upadacitinib 30 mg QD.

The subject of series [2] is anti-dsDNA autoantibodies, complement C3 and C4, IgG, IgM, circulating B cells. In words: Biomarker analysis in Study M19-130. In kind it is in vivo, human. An excerpt: Biospecimens (whole blood, peripheral blood mononuclear cells [PBMCs], plasma, and serum) were collected at specified time points throughout the study to evaluate known and/or novel disease-related or drug-related biomarkers. Types of biomarkers may have included nucleic acids, proteins, lipids, RNA, DNA, and/or metabolites. The objective of this research was to analyze samples for biomarkers that would help to understand SLE, related conditions, and response to treatment with upadacitinib or similar compounds.
Increased circulating memory, naïve, and total B cells were also observed.
The Week 48 predefined biomarker analyses confirmed the trends observed at Week 24.

With `CC[C@@H]1CN(C(=O)NCC(F)(F)F)C[C@@H]1c1cnc2cnc3[nH]ccc3n12` [Upadacitinib, (3S,4R)-3-ethyl-4-(3H-imidazo[1,2-a]pyrrolo[2,3-e]pyrazin-8-yl)-N-(2,2,2-trifluoroethyl)pyrrolidine-1-carboxamide], in series [1], the “model-estimated median (prediction interval) steady-state (SS) Cavg” value was 28.4 (19.1-46.6) ng/mL. In addition, in series [2] (30 mg QD, Week 48 analysis), the anti-dsDNA autoantibodies entry is listed as “meaningful decreases”, the “complement C3 level” value was “early reduction (a known effect of JAK inhibitors) followed by a progressive normalization” and the “complement C4 level” value is “early reduction (a known effect of JAK inhibitors) followed by a progressive normalization”. Also, in series [2] (30 mg, Week 24 analysis), the “circulating memory B cells” value is recorded as “Increased”, the “circulating naïve B cells” value is on record as “Increased”, the “circulating total B cells” value is given as “Increased” and the “level of C3 complement compared to Baseline” value is “significant decrease”. Further, in series [2] (30 mg, Week 24 analysis), the “level of C4 complement compared to Baseline” value is “significant decrease”, the “level of IgG” value was “significant decreases”, the “level of IgM compared to Baseline” value is reported as “significant decrease” and the “level of anti-dsDNA autoantibodies” value is reported as “significant decreases”.
